Test results from ChEMBL document CHEMBL2176906, “Diterpenoids isolated from Sideritis species protect astrocytes against oxidative stress via Nrf2” (J Nat Prod, 2012).
Active and inactive are the calls of the source. The calls are words filed in the database; no cut-off is given here.

Tests used:
U-373MG ATCC [1] = assay: Antioxidant activity in human U373MG cells assessed as reduction in H2O2-induced cytotoxicity preincubated at 5 uM for 24 hrs before H2O2 challenge by MTT assay; format: functional, cell-based
[2] = Cytotoxicity against human U373MG cells assessed as dye reduction at 1 to 10 uM after 24 hrs by MTT assay; format: cell-based, U-373MG ATCC; conditions: read-out: Activity
[3] = Cytotoxicity against human U373MG cells at > 10 uM after 24 hrs by MTT assay; format: cell-based; conditions: u-373mg atcc
[4] = target: T1, Nuclear factor erythroid 2-related factor 2 (Homo sapiens) (UniProt Q16236); assay: Induction of Nrf2-mediated CAT protein expression in H2O2-stimulated human U373MG cells preincubated at 10 uM for 24 hrs before H2O2 challenge by Western blot method; format: cell-based; conditions: U-373MG ATCC
T1 sequence (whole entry): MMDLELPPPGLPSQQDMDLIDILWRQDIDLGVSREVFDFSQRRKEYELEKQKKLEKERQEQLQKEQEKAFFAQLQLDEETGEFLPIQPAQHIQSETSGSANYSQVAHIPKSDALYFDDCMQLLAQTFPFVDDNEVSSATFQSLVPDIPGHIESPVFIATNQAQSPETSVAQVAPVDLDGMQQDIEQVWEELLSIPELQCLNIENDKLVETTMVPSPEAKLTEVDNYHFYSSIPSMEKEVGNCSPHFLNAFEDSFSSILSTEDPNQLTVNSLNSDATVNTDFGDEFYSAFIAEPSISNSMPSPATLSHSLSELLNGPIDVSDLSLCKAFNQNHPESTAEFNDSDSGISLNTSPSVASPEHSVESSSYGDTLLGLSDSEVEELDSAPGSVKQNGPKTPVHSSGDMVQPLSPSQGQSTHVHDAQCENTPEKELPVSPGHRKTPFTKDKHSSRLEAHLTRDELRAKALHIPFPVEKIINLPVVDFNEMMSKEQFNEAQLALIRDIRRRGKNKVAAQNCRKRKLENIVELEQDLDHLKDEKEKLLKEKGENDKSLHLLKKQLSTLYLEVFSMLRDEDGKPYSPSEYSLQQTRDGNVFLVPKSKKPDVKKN

U373 MG [5] = assay: Induction of Nrf2 nuclear protein expression in H2O2-stimulated human U373MG cells preincubated at 10 uM for 24 hrs before H2O2 challenge by Western blot method; format: functional, cell-based; conditions: U-373MG ATCC
U373 MG [6] = assay: Induction of Glutathione reductase activity in human U373MG cells assessed as […] per mg protein preincubated at 10 uM for 24 hrs before H2O2 challenge by fluorimetric method (reference value: 9.3 +/- 2.2 nmol/min/mg protein); format: functional, U-373MG ATCC
U373 MG [7] = assay: Induction of CAT activity in human U373MG cells assessed per mg protein preincubated at 10 uM for 24 hrs before H2O2 challenge by fluorimetric method (reference value: 18.9 +/- 0.4 UI/mg protein); format: functional, U-373MG ATCC
U373 MG [8] = assay: Inhibition of H2O2-induced oxidative stress in human U373MG cells assessed as GSSG level per mg protein at 10 uM by fluorimetric method (reference value: 9.2 +/- 0.9 nmol/mg protein); format: functional, U-373MG ATCC
U373 MG [9] = assay: Inhibition of H2O2-induced oxidative stress in human U373MG cells assessed as GSH level per mg protein at 10 uM by fluorimetric method (reference value: 17.1 +/- 1.7 nmol/mg protein); format: functional, U-373MG ATCC
U373 MG [10] = assay: Inhibition of H2O2-induced lipid peroxidation in human U373MG cells assessed as reduction in MDA levels per mg protein at 10 uM by HPLC analysis (reference value: 0.95 +/- 0.03 nmol/mg protein); format: functional, U-373MG ATCC
U373 MG [11] = assay: Inhibition of H2O2-induced lipid peroxidation in human U373MG cells assessed as reduction in MDA levels per mg protein at 5 uM by HPLC analysis (reference value: 0.95 +/- 0.03 nmol/mg protein); format: functional, U-373MG ATCC
U-373MG ATCC [12] = assay: Antioxidant activity in human U373MG cells assessed as reduction in H2O2-induced morphological changes preincubated at 10 uM for 24 hrs before H2O2 challenge by phase-contrast microscopy; format: functional, cell-based
U-373MG ATCC [13] = assay: Antioxidant activity in human U373MG cells assessed as reduction in H2O2-induced cytotoxicity preincubated at 10 uM for 24 hrs before H2O2 challenge by LDH assay; format: functional, cell-based
U-373MG ATCC [14] = assay: Antioxidant activity in human U373MG cells assessed as reduction in H2O2-induced cytotoxicity preincubated at 5 uM for 24 hrs before H2O2 challenge by LDH assay; format: functional, cell-based
U-373MG ATCC [15] = assay: Antioxidant activity in human U373MG cells assessed as reduction in H2O2-induced cytotoxicity preincubated at 10 uM for 24 hrs before H2O2 challenge by MTT assay; format: functional, cell-based
[16] = Cytotoxicity against human U373MG cells at > 50 uM after 24 hrs by MTT assay; format: cell-based; conditions: u-373mg atcc
[17] = target: T1, Nuclear factor erythroid 2-related factor 2 (Homo sapiens); assay: Induction of Nrf2-mediated HO-1 protein expression in H2O2-stimulated human U373MG cells preincubated at 10 uM for 24 hrs before H2O2 challenge by Western blot method; format: cell-based; conditions: U-373MG ATCC
[18] = target: T1, Nuclear factor erythroid 2-related factor 2 (Homo sapiens); assay: Induction of Nrf2-mediated HO-1 protein expression in H2O2-stimulated human U373MG cells preincubated at 5 uM for 24 hrs before H2O2 challenge by Western blot method; format: cell-based; conditions: U-373MG ATCC
[19] = target: T1, Nuclear factor erythroid 2-related factor 2 (Homo sapiens); assay: Induction of Nrf2-mediated glutathione reductase protein expression in H2O2-stimulated human U373MG cells preincubated at 10 uM for 24 hrs before H2O2 challenge by Western blot method; format: cell-based; conditions: U-373MG ATCC
[20] = target: T1, Nuclear factor erythroid 2-related factor 2 (Homo sapiens); assay: Induction of Nrf2-mediated glutathione reductase protein expression in H2O2-stimulated human U373MG cells preincubated at 5 uM for 24 hrs before H2O2 challenge by Western blot method; format: cell-based; conditions: U-373MG ATCC
U-373MG ATCC [21] = assay: Antioxidant activity in human U373MG cells assessed as reduction in H2O2-induced ROS production preincubated at 10 uM for 24 hrs before H2O2 challenge by DCFH-DA assay; format: functional, cell-based
U-373MG ATCC [22] = assay: Antioxidant activity in human U373MG cells assessed as reduction in H2O2-induced ROS production preincubated at 5 uM for 24 hrs before H2O2 challenge by DCFH-DA assay; format: functional, cell-based
U-373MG ATCC [23] = assay: Antioxidant activity in human U373MG cells assessed as reduction in H2O2-induced cytotoxicity preincubated for 24 hrs before H2O2 challenge by LDH assay; format: functional, cell-based
U-373MG ATCC [24] = assay: Antioxidant activity in human U373MG cells assessed as reduction in H2O2-induced cytotoxicity preincubated for 24 hrs before H2O2 challenge by MTT assay; format: functional, cell-based
[25] = Cytotoxicity against human U373MG cells at 1 to 100 uM after 24 hrs by LDH assay; format: cell-based; conditions: u-373mg atcc
[26] = Cytotoxicity against human U373MG cells at 1 to 100 uM after 24 hrs by MTT assay; format: cell-based; conditions: u-373mg atcc
[27] = Antioxidant activity in human U373MG cells assessed as reduction in H2O2-induced ROS production preincubated at 5 to 10 uM for 24 hrs before H2O2 challenge by DCFH-DA assay relative to untreated control; format: functional, U-373MG ATCC

Row | Activity [4] | Activity [17] | Activity [18] | Activity [19] | Activity [20] | Structure (SMILES) | viability at 24 h, up to 10 µM [2] | Activity (U373 MG [5]) | Activity (U373 MG [6]) | Activity (U373 MG [7]) | Activity (U373 MG [8]) | Activity (U373 MG [9]) | Activity (U373 MG [10]) | Activity (U373 MG [11]) | Activity (U-373MG ATCC [12]) | Activity (U-373MG ATCC [23]) | Activity (U-373MG ATCC [24]) | further results
1 | inactive |  |  |  |  | CC1(C)CCC[C@]2(C)[C@@H]1C[C@H](O)[C@@]13C=C[C@@](CO)(C1)[C@H](O)C[C@@H]23 [CONCHITRIOL] | 90% | inactive | 10.2 nmol/min | 17.4 IU | 8.6 nmol | 19.8 nmol | 0.87 nmol | 0.91 nmol | Active |  |  | Activity (U-373MG ATCC [1]): Active; Activity [3]: Toxic; Activity (U-373MG ATCC [13]): Active; Activity (U-373MG ATCC [14]): Active; Activity (U-373MG ATCC [15]): Active
2 | Active | Active | Active | Active | Active | CC1(C)CCC[C@H]2C1=CC[C@H]1C[C@@](C)([C@@H](O)CO)C[C@@H](O)[C@@]12C [LAGASCATRIOL] | 90% | Active | 20.6 nmol/min | 23.9 IU | 7 nmol | 30 nmol | 0.57 nmol | 0.6 nmol | Active | Dose-dependent effect | Dose-dependent effect | Activity [16]: Toxic; Activity (U-373MG ATCC [21]): Active; Activity (U-373MG ATCC [22]): Active
3 | Active | Active | Active | Active | Active | C=CC(=C)CC[C@H]1[C@]2(C)CCC[C@](C)(CO)[C@H]2[C@H](O)C[C@]1(C)O [ANDALUSOL] | 90% | Active | 19.7 nmol/min | 23.7 IU | 6.8 nmol | 39.8 nmol | 0.51 nmol | 0.62 nmol | Active | Dose-dependent effect | Dose-dependent effect | Activity [25]: Non-toxic; Activity [26]: Non-toxic; Ratio [27]: 1.4
